Data as given in patent US9144569B2, “Methods of administering an aromatase inhibitor, prostaglandin and GnRH for regulating ovulation in cattle” (UNIVERSITY OF SASKATCHEWAN, priority 2010, dated 2015).
Marks after values point to notes of the source that are not given here.

Test system: Hereford-cross beef heifers
Experiment: Example II: 3-day letrozole regimen in heifers, ovarian ultrasonography
Format: in vivo, cattle
Conditions: for Inter-ovulatory interval / Inter-wave interval: 85 μg/kg/day iv; for Inter-wave interval: mean±SEM
Protocol: Hereford-cross beef heifers, 14 to 20 months of age and weighing between 233 and 404 kg, were chosen from a herd of 50 animals maintained in outdoor corrals at the University of Saskatchewan Goodale Research Farm (52° North and 106° West). Heifers were fed alfalfa/grass hay and grain to gain approximately 1.3 kg per day and had water ad libitum during the experimental period from May to July. Heifers were initially examined by transrectal ultrasonography (7.5 MHz linear-array transducer, Aloka SSD-900; Tokyo, Japan) to confirm that they were postpubertal by the presence of a CL [33].
Four days after follicular ablation, heifers were given 500 μg of cloprostenol (PGF, Estrumate, Schering-Plough Animal Health, Pointe-Claire, QC, Canada) intramuscularly (im) to induce regression of the CL and to synchronize ovulation. The experiment was performed in two replicates (n=20-27 per replicate) and each heifer was used only once. In replicate 1, heifers were assigned randomly at the time of ovulation (Day 0) to the following groups and given a 3-day regimen of letrozole from Days 1 to 3 (n=5), Days 3 to 5 (n=5), Days 5 to 7 (n=5), or no treatment (control group, n=5). In replicate 2, heifers were similarly assigned to groups and given letrozole from Days 1 to 3, (n=5), Days 3 to 5 (n=4), or Days 5 to 7 (n=4), but untreated control heifers were arranged in three sub-groups to serve as contemporaneous controls for each letrozole-group during intensive blood sampling periods (i.e., control Days 1 to 3, n=4; control Days 3 to 5, n=4; and control Days 5 to 7, n=5). For practical purposes, the total dose of letrozole (250 μg/kg) was calculated on the basis of an average weight of 350 kg for all heifers and administered intravenously in daily divided doses over 3 days (85 μg/kg per day). For intravenous injection, letrozole was prepared in 95% ethanol to a final concentration of 5 mg/ml, resulting in an injection volume of 6 mL/day.
Ultrasound examinations were recorded on a sketch sheet in which each ovary and its structures (CL [37] and follicles ≧4 mm in diameter) were represented in size and relative location. Ovulation was defined as the disappearance of any follicle ≧8 mm between two consecutive daily examinations, and was confirmed by the subsequent development of a CL [39]. Follicular wave emergence was defined retrospectively as the day when the dominant follicle was first identified at a diameter of 4 or 5 mm. If the dominant follicle was not identified until it reached 6 or 7 mm, the previous day was considered the day of follicular wave emergence. The dominant follicle of a wave was defined as the largest antral follicle of that wave after deviation, and the first subordinate follicle as the second largest antral follicle originated from the same wave. The day of onset of follicular and luteal regression was defined as the first day of an apparent constant decrease in follicular and luteal diameters, respectively.
Statistical analyses were done using the Statistical Analysis System software package (SAS Learning Edition 9.1, 2006; SAS Institute Inc., Cary, N.C., USA). Time-series hormone data, plasma letrozole concentration, and follicular and luteal diameter profiles were analysed by repeated measures, using the PROC MIXED procedure. The main effects were treatment, time, and their interactions. […] Single point measurements (interwave and interovulatory intervals, interval from ovulation to onset of CL regression, mean and basal LH concentrations, LH pulse amplitude and frequency, and pharmacokinetic parameters for letrozole) were analysed by analysis of variance. […] If significant main effects or interactions (P≦0.05) were detected, Tukey's post-hoc test was used for multiple comparisons.

N#Cc1ccc(C(c2ccc(C#N)cc2)n2cncn2)cc1 [Letrozole, letrozole]
Inter-ovulatory interval (Days 1 to 3, n=10): 20.9 ± 0.46^a days
Inter-wave interval (Days 1 to 3, n=10): 8.9 ± 0.35^a days
Inter-ovulatory interval (Days 3 to 5, n=9): 20.1 ± 0.49^a days
Inter-wave interval (Days 3 to 5, n=9): 10.0 ± 0.37^ab days
Inter-ovulatory interval (Days 5 to 7, n=9): 21.2 ± 0.49^a days
Inter-wave interval (Days 5 to 7, n=9): 10.7 ± 0.37^b days
Inter-wave interval (Days 5 to 7, n=9, listed as letrozole): 10.7 days
growth of the extant dominant follicle compared to controls (3-day regimen, treatment groups combined (n=28) vs untreated, P<0.01): grew longer and to a greater diameter
diameter profile of the largest subordinate follicle compared to controls (treated Days 1 to 3, P<0.05): larger
diameter profile of the largest subordinate follicle compared to controls (treated Days 3 to 5): intermediate
diameter profile of the largest subordinate follicle compared to controls (treated Days 5 to 7): intermediate
